Test systems include T-47D breast; MALME-3M melanoma; HS 578T breast; COLO 205 colon; A549 NSCLC; NCI-H23 lung; NCI-H226 lung; HCT-116 colon; KM12 colon; HCC-2998 colon; TK-10 renal; SN12C renal; SNB-75 CNS.
Experiment in all cases: NCI-60 cell line screen, 48 h

SMILES strings stand for the structures.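 All cell lines were grown in 96-well plates and treated with compound for 48 hours. TGI marks complete inhibition of growth.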 A value given as a limit tells only on which side of the number the result lay.

As to `CCN(CC)CC(O)c1ccc2ccc3ccccc3c2c1` (stereo not drawn), the TGI is 37.7 µM in the experiment on T-47D breast; 34 µM in the experiment with MALME-3M melanoma; 41.9 µM in the experiment with HS 578T breast; 29.9 µM in the experiment with COLO 205 colon; 31.4 µM in the experiment on A549 NSCLC; 37 µM in the experiment on NCI-H23 lung. The TGI in the experiment on NCI-H226 lung is 29.5 µM; in the experiment on HCT-116 colon, 29.5 µM; in the experiment on KM12 colon it was 29.1 µM; with HCC-2998 colon, 23 µM; in the experiment with TK-10 renal, 29.9 µM; in the experiment with SN12C renal it was 32.1 µM. The same molecule showed a TGI in the experiment with SNB-75 CNS of 33.5 µM.

Take `Clc1cc2nc(C3CCCO3)[nH]c2cc1Cl` (stereo not drawn): the TGI in the experiment with T-47D breast, with MALME-3M melanoma, in the experiment on HS 578T breast, in the experiment with COLO 205 colon, in the experiment on A549 NSCLC and with NCI-H23 lung was above 100 µM throughout. The TGI with NCI-H226 lung, in the experiment with HCT-116 colon, in the experiment on KM12 colon, with HCC-2998 colon, in the experiment on TK-10 renal and in the experiment on SN12C renal was above 100 µM in each case. The molecule also came in with a TGI in the experiment on SNB-75 CNS above 100 µM.

Regarding `Cc1c2c(c(C)c3c[n+](C)ccc13)Oc1ccccc1O2`, the TGI is 25.7 µM with T-47D breast; 19.1 µM with MALME-3M melanoma; 12.9 µM in the experiment on HS 578T breast; above 52.9 µM with COLO 205 colon; above 100 µM in the experiment with A549 NSCLC; 40.4 µM in the experiment on NCI-H23 lung. Moreover, the TGI is above 43.8 µM with NCI-H226 lung; above 67.9 µM in the experiment with HCT-116 colon; 6.42 µM with KM12 colon; 19.8 µM in the experiment on HCC-2998 colon; above 100 µM in the experiment with TK-10 renal; above 42.4 µM in the experiment on SN12C renal. Further, the TGI in the experiment with SNB-75 CNS is 17.5 µM.

For `COC(=O)C12CCC(C(=O)OC)(Cc3c(c4ccccc4n3S(=O)(=O)c3ccccc3)C1)C2=O` (stereo not drawn), the TGI in the experiment with T-47D breast was above 100 µM; with MALME-3M melanoma it was above 100 µM; in the experiment on HS 578T breast, above 84.7 µM; with COLO 205 colon, above 100 µM; in the experiment with A549 NSCLC, above 100 µM; with NCI-H23 lung it was above 100 µM. Besides, the TGI is above 100 µM with NCI-H226 lung; above 26.5 µM with HCT-116 colon; above 100 µM in the experiment with KM12 colon; above 100 µM with HCC-2998 colon; above 100 µM in the experiment on TK-10 renal; above 100 µM with SN12C renal. Also, in the experiment with SNB-75 CNS, the TGI was above 100 µM.

Turning to `CCOC(=O)C(SCCO)C(C(=O)OCC)n1ccc(N)nc1=O` (stereo not drawn), the TGI in the experiment on T-47D breast, with MALME-3M melanoma, in the experiment on HS 578T breast, in the experiment with COLO 205 colon, in the experiment with A549 NSCLC and with NCI-H23 lung was above 100 µM each time. Also, the TGI in the experiment on NCI-H226 lung, in the experiment on HCT-116 colon, with KM12 colon, in the experiment on HCC-2998 colon, in the experiment on TK-10 renal and with SN12C renal was above 100 µM throughout. This molecule registered a TGI in the experiment with SNB-75 CNS above 100 µM.

As for `C/C(Cl)=N\OC(=O)Nc1ccc([N+](=O)[O-])cc1`, the TGI in the experiment on T-47D breast was determined as 36.8 µM; with MALME-3M melanoma, 7.95 µM; in the experiment with HS 578T breast, 72.5 µM; in the experiment with COLO 205 colon, 5.85 µM; with A549 NSCLC, 47.5 µM; in the experiment with NCI-H23 lung it was 49.9 µM. In addition, the TGI in the experiment with NCI-H226 lung is above 100 µM; in the experiment on HCT-116 colon, 22.2 µM; in the experiment on KM12 colon, 36.2 µM; in the experiment on HCC-2998 colon it was 29.8 µM; in the experiment with TK-10 renal it was 27.8 µM; with SN12C renal it was 35.1 µM. The molecule further gave a TGI with SNB-75 CNS of 31.4 µM.

`CS(C)(=O)=N/C=C\C(=O)C(Cl)(Cl)Cl`: the TGI with T-47D breast, in the experiment with MALME-3M melanoma, with HS 578T breast, in the experiment with COLO 205 colon, with A549 NSCLC and with NCI-H23 lung was above 100 µM throughout. For the same molecule, the TGI in the experiment with NCI-H226 lung, in the experiment on HCT-116 colon, in the experiment on KM12 colon, in the experiment on HCC-2998 colon, in the experiment on TK-10 renal and in the experiment with SN12C renal was above 100 µM each time. The molecule further gave a TGI with SNB-75 CNS above 100 µM.

Turning to `CC1=CC(c2ccccc2)OP1(=O)c1ccccc1` (stereo not drawn), the TGI with T-47D breast, with MALME-3M melanoma, in the experiment with HS 578T breast, with COLO 205 colon, in the experiment on A549 NSCLC and in the experiment on NCI-H23 lung was above 100 µM throughout. For the same molecule, the TGI in the experiment on NCI-H226 lung, in the experiment on HCT-116 colon, in the experiment with KM12 colon, in the experiment on HCC-2998 colon, in the experiment on TK-10 renal and in the experiment on SN12C renal was above 100 µM throughout. The molecule further registered a TGI with SNB-75 CNS above 100 µM.

For the molecule `NNC(N)=Nc1cccc2ccccc12`, the TGI in the experiment on T-47D breast, with MALME-3M melanoma, in the experiment with HS 578T breast, in the experiment on COLO 205 colon, in the experiment with A549 NSCLC and with NCI-H23 lung was above 100 µM in each case. Further, the TGI with NCI-H226 lung, in the experiment with HCT-116 colon, in the experiment with KM12 colon, in the experiment on HCC-2998 colon, with TK-10 renal and with SN12C renal was above 100 µM in each case. Moreover, the TGI with SNB-75 CNS was above 100 µM.

In the case of `COc1cc(N=C(N)N=C(N)N)c2ncccc2c1`, the TGI in the experiment on T-47D breast, in the experiment with MALME-3M melanoma, in the experiment on HS 578T breast, with COLO 205 colon, in the experiment on A549 NSCLC and with NCI-H23 lung was above 100 µM each time. Further, the TGI in the experiment on NCI-H226 lung is 62.7 µM; in the experiment on HCT-116 colon, above 100 µM; in the experiment with KM12 colon, above 100 µM; in the experiment with HCC-2998 colon it was above 100 µM; with TK-10 renal, above 100 µM; with SN12C renal, above 100 µM. The molecule further registered a TGI with SNB-75 CNS above 100 µM.

For the molecule `CCN(CC)CCN1c2ccccc2Sc2ccc3ccccc3c21`, the TGI in the experiment on T-47D breast turned out to be 19.1 µM; in the experiment with MALME-3M melanoma, 32.5 µM; in the experiment with HS 578T breast, 32.6 µM; in the experiment with COLO 205 colon, 15.9 µM; in the experiment with A549 NSCLC, 27.8 µM; in the experiment on NCI-H23 lung, 31.9 µM. The TGI was determined as 19.1 µM with NCI-H226 lung; 22.9 µM in the experiment with HCT-116 colon; 19.7 µM with KM12 colon; 6.86 µM in the experiment with HCC-2998 colon; 23.9 µM with TK-10 renal; 24.4 µM with SN12C renal. In the experiment on SNB-75 CNS, this molecule gave a TGI of 19.9 µM.

Regarding `COc1ccc2c(c1)/C(=C(\C(Cl)=C(Cl)Cl)[N+](=O)[O-])N2`, the TGI with T-47D breast, in the experiment with MALME-3M melanoma, in the experiment with HS 578T breast, with COLO 205 colon, in the experiment with A549 NSCLC and in the experiment with NCI-H23 lung was above 100 µM in each case. For the same molecule, the TGI with NCI-H226 lung was 85.7 µM; in the experiment on HCT-116 colon, above 100 µM; in the experiment with KM12 colon, above 100 µM; with HCC-2998 colon it was above 100 µM; in the experiment with TK-10 renal it was above 100 µM; with SN12C renal, above 100 µM. The TGI with SNB-75 CNS is above 100 µM.

As to `COC(=O)N1CC[C@@H]2CCC=C(c3cccc4c3OCO4)[C@@H]21`, the TGI in the experiment with T-47D breast, in the experiment with MALME-3M melanoma, in the experiment on HS 578T breast, in the experiment with COLO 205 colon, with A549 NSCLC and in the experiment on NCI-H23 lung was above 100 µM throughout. Besides, the TGI in the experiment with NCI-H226 lung, with HCT-116 colon, in the experiment on KM12 colon, in the experiment on HCC-2998 colon, in the experiment with TK-10 renal and in the experiment on SN12C renal was above 100 µM in each case. In addition, in the experiment on SNB-75 CNS, the TGI was 62 µM.

On to `CC1=C(C)C(=O)OC(C(C)(O)C2(O)CCC3(O)C4CC(Cl)C5(O)C(O)C=CC(=O)C5(C)C4CCC32C)C1` (stereo not drawn), for which the TGI in the experiment on T-47D breast was above 100 µM; in the experiment with MALME-3M melanoma it was above 100 µM; in the experiment with HS 578T breast, above 100 µM; in the experiment on COLO 205 colon it was 42.8 µM; with A549 NSCLC, above 100 µM; in the experiment with NCI-H23 lung it was above 100 µM. The TGI with NCI-H226 lung, in the experiment on HCT-116 colon, in the experiment with KM12 colon, in the experiment on HCC-2998 colon, in the experiment on TK-10 renal and with SN12C renal was above 100 µM each time. The TGI in the experiment with SNB-75 CNS was above 100 µM.

Consider `COc1ccc2nc(-c3ccc(OC(=O)N(C)C)cc3)cn2c1`, for which the TGI in the experiment on T-47D breast, in the experiment on MALME-3M melanoma, with HS 578T breast, in the experiment with COLO 205 colon, in the experiment with A549 NSCLC and in the experiment on NCI-H23 lung was above 100 µM each time. Further, the TGI in the experiment with NCI-H226 lung, in the experiment on HCT-116 colon, with KM12 colon, in the experiment with HCC-2998 colon, in the experiment with TK-10 renal and in the experiment with SN12C renal was above 100 µM throughout. Also, the TGI in the experiment with SNB-75 CNS is above 100 µM.

With `Nc1[nH]c(=O)nc2sc3c(c12)CCCC3`, the TGI was above 100 µM in the experiment on T-47D breast; above 100 µM in the experiment on MALME-3M melanoma; 71.9 µM in the experiment with HS 578T breast; above 100 µM with COLO 205 colon; above 100 µM with A549 NSCLC; above 100 µM with NCI-H23 lung. For the same molecule, the TGI with NCI-H226 lung is 88.8 µM; with HCT-116 colon, above 100 µM; with KM12 colon, above 100 µM; in the experiment on HCC-2998 colon, above 100 µM; in the experiment with TK-10 renal, above 100 µM; in the experiment with SN12C renal, above 100 µM. Moreover, the TGI in the experiment with SNB-75 CNS is 64.4 µM.

These data come from PubChem BioAssay (NCI).
